Measured values taken from patent publication US8883077B2, “Disinfecting, nonbleaching N-halamine for use with contact lens” (Auburn University, priority 2010, dated 2014).
Converted amounts (≈) assume the structure as drawn.

Legend:
[1] = Solubility in water at 22° C.; format: physicochemical
Excerpt: Both of the N-chloramine compounds mentioned above are able to easily be synthesized using methods known to those of skill in the art. Aqueous solutions of the un-halogenated amine precursor for either compound may be simply exposed to a dilute aqueous solution of household bleach (e.g., sodium hypochlorite) or sodium chlorite or by bubbling in chlorine gas to form the N-chloramine. For example, compound 1 has been prepared by Worley, et al., by using chlorine gas to react with an aqueous alkaline solution of the precursor amine (see Tsao, et al., “Novel N-Halamine Disinfectant Compounds”, Biotechnol. Prog. 1991, 7, 60 or Worley, et al., U.S. Pat. No. 5,057,612). It can also be purchased commercially from the HaloSource Corporation in Bothell, Wash. The precursor 2,2,5,5-tetramethyl-4-imidazolidinone is able to be prepared according to the method outlined in Tsao, et al., “Novel N-Halamine Disinfectant Compounds”, Biotechnol. Prog. 1991, 7, 60 or Worley, et al., U.S. Pat. No. 5,057,612. Compound 2 is able to be prepared by reaction of commercial (Aldrich Chemical Company, Milwaukee, Wis.) 2,2,6,6-tetramethyl-4-piperidinol with dilute household bleach. […] Pure compounds 1 and 2 contain 20.1 and 18.5 percent by weight oxidative chlorine, respectively. Their solubilities in water at 22° C. are 1930 and 6815 mg/L, respectively. […]

[2] = system: Staphylococcus aureus (ATCC 25923); assay: Disinfection efficacy in aqueous solution (colony counts after thiosulfate quench); format: cell-based; settings: 5 mg/L total chlorine (25 mg/L compound)
Method: The antimicrobial efficacy of compound 1 was evaluated against the pathogen Staphylococcus aureus (ATCC 25923) in aqueous solution at 22° C. and pH values of 4.5, 7.0, and 9.5. Solutions containing about 1×10^6 colony forming units (CFU) per mL final cell densities of bacteria were prepared and treated with compound 1 at a concentration of 5 mg/L total chlorine concentration (25 mg/L compound concentration). Aliquots were removed at predetermined contact times and quenched with sterile 0.02 N sodium thiosulfate to terminate disinfection action. Then serial dilutions were made into sterile saline solution, and 25 μL aliquots of each dilution were applied to the dried surface of a Petri dish containing tryptic soy agar. After 48 hours of incubation at 37° C., colony counts for each dilution were made. The results of three replicates were averaged. Control samples containing no disinfectant were handled in the same manner. Inactivation of the pathogen was considered to be at least 99.9999% (6 logs) when no viable colonies were detected in the thiosulfate-quenched aliquots.

[3] = Stability in aqueous solution and in Unisol 4 contact lens soak (iodometric/thiosulfate titration); format: physicochemical
Method: The stabilities of compound 1 in aqueous solution and in a contact lens soak formulation (Unisol 4 manufactured by Alcon Laboratories, Inc.) were determined at 22° C. by using the standard iodometric/thiosulfate titration procedure. In water buffered to pH 7.0 at 22° C., the compound at a starting concentration of 10 mg/L total chlorine lost less than 5% of its oxidative chlorine over a storage period of 50 days. In about 4 mL of Unisol 4 at a starting concentration of about 20 mg/L total chlorine in the presence of an ACUVUE 2 contact lens (manufactured by Johnson & Johnson Vision Care, Inc.) in a lens holder manufactured by Alcon Laboratories, Inc., the loss of oxidative chlorine over 60 days was about 21%. In contrast, in an analogous experiment with compound 2 in the Unisol 4, the loss was about 54% over just 30 days.

Structure (SMILES) | solubility [1] [µg/mL] | contact time required for 99.9999% inactivation ([2]; pH 4.5, 22° C.) [min] | inactivation after 10 minutes contact ([2]; pH 4.5, 22° C., about 1×10^6 CFU/mL) [%] | contact time required for 99.9999% inactivation ([2]; pH 7.0, 22° C.) [min] | inactivation after 10 minutes contact time ([2]; pH 7.0, 22° C., about 1×10^6 CFU/mL) [%] | contact time required for 99.9999% inactivation ([2]; pH 9.5, 22° C.) [min] | inactivation after 10 minutes contact time ([2]; pH 9.5, 22° C., about 1×10^6 CFU/mL) [%] | loss of oxidative chlorine ([3]; about 4 mL Unisol 4 with ACUVUE 2 contact lens, starting about 20 mg/L total chlorine, 60 days) | loss of oxidative chlorine ([3]; water buffered to pH 7.0, 22° C., starting 10 mg/L total chlorine, storage 50 days) | loss of oxidative chlorine ([3]; Unisol 4 with ACUVUE 2 contact lens, analogous experiment, 30 days)
CC1(C)NC(=O)C(C)(C)N1Cl [compound 1, 1-chloro-2,2,5,5-tetramethyl-4-imidazolidinone] | 1930 (≈ 10.9 mM) | 60 | 96 | 588 | 4.4 | 454 | 50 | about 21% | less than 5% | 
CC1(C)CC(O)CC(C)(C)N1Cl [compound 2, 1-chloro-2,2,6,6-tetramethyl-4-piperidinol, reference compound] | 6820 (≈ 35.5 mM) |  |  |  |  |  |  |  |  | about 54%
